In patent publication US8513233B2, “Pyrimidinyl-propionic acid derivatives and their use as PPAR agonists” (Shanghai Institute of Materia Medica, CAS, priority 2007, dated 2013) one finds EC50, IC50 and melting point data, which are given here for seven compounds.

In series [1] the target is T1, PPAR-γ (Homo sapiens, UniProt P37231).
T1 construct: expressed in transfected cells; host or cells: U2OS cells, transiently transfected with pcDNA3.1 expression vectors (FuGene6)
T1 sequence (P37231 1-505): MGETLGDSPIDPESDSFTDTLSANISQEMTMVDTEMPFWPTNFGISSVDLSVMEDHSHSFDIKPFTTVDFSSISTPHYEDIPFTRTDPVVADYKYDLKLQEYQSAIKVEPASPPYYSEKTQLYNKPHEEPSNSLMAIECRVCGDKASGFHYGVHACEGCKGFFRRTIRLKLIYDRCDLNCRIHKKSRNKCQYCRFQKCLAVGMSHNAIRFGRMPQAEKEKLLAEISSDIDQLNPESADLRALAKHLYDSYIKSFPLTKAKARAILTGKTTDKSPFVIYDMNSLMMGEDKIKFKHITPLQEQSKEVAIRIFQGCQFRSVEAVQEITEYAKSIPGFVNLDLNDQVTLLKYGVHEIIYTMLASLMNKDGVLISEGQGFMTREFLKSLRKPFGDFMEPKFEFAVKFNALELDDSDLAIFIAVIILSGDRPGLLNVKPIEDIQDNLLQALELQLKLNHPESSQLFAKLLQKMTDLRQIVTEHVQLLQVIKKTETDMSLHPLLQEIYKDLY
T1 sequence (P19793 1-462 partner): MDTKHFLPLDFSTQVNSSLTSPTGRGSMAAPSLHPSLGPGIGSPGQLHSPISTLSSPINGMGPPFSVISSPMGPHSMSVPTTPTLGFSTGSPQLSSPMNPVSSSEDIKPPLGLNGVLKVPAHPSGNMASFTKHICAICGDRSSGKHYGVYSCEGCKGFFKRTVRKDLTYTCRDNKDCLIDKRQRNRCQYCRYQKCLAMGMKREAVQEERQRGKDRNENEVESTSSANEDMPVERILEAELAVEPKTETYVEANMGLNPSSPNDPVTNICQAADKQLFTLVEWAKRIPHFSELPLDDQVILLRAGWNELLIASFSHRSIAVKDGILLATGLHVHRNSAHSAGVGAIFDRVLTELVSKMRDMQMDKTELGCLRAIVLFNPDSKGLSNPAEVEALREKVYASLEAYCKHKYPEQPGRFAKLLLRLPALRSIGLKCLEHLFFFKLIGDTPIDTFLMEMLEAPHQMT
The experiment in a line: Transient transfection and transcription assay (luciferase reporter, U2OS cells). The conditions noted are these: 24 h treatment. Format: cell-based.

Series [2] concerns SPC-A1. The experiment in a line: Growth inhibition, modified MTT assay, SPC-A1. The conditions noted are these: SPCA1, mean of 3 independent tests. Format: cell-based. In short, it runs like this: (§1)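 Cells seeded 24 h in 10% FCS medium, switched to serum-free medium for 24 h, then exposed to graded compound concentrations in triplicate. Viability read by MTT (4 h), formazan dissolved in DMSO, OD at 492 nm; IC50 from sigmoidal fit, mean of 3 independent tests.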

Series [3] deals with T24. The experiment in a line: Growth inhibition, modified MTT assay, T24. Format: cell-based. The conditions noted are these: Homo sapiens, T-24, mean of 3 independent tests. The method in brief: as §1
Series [4] relates to HepG2. The experiment in a line: Growth inhibition, modified MTT assay, HepG2. Format: cell-based. The settings on record: Homo sapiens, mean of 3 independent tests. The method in brief:
as §1

Series [5] concerns MCF-7. Put plainly: Growth inhibition, modified MTT assay, MCF-7. Format: cell-based. The conditions noted are these: Homo sapiens, MCF7; MCF-7, MTT, mean of 3 independent tests. In short, it runs like this:
as §1

Molecules are shown by their SMILES.

On to `CC(Cc1ccc(Oc2cc(N3CCN(CC(=O)c4ccccc4)CC3)nc(N)n2)cc1)(Oc1ccccc1)C(=O)O` (stereo not shown) [Compound 18, 3-{4-{2-Amino-6-[4-(2-oxo-2-phenyl-ethyl)-piperazin-1-yl]-pyrimidin-4-yloxy}-phenyl}-2-methyl-2-phenoxy-propionic acid], for which the melting point (commonly the temperature of the solid-liquid transition) lay in the range of 107 to 108 °C. In addition, the EC50 (usually the concentration that produces a half-maximal response) in series [1] was 6.46 µM. Besides, in series [2], the IC50 (in general, the point on the concentration scale where inhibition reaches its midpoint) is > 50 µM. The IC50 in series [3] was > 50 µM. The IC50 in series [4] is > 50 µM. Also, in series [5], the IC50 is > 50 µM.

As to `CC(Cc1ccc(Oc2cc(N3CCN(Cc4ccccc4)CC3)ncn2)cc1)(Oc1ccccc1)C(=O)O` (stereo not shown) [Compound 28, 3-{4-[6-(4-benzyl-piperazin-1-yl)-pyrimidin-4-yloxy]-phenyl}-2-methyl-2-phenoxy-propionic acid], the melting point lay within 107 to 109 °C. Further, the EC50 in series [1] worked out at 4.68 µM. Besides, half-maximal inhibition in series [2] (IC50) was put at 28.6 µM. In series [3], this compound registered an IC50 of 19.6 µM. Further, the IC50 in series [4] turned out to be 29.3 µM. The same compound showed a 50% inhibitory concentration (IC50) in series [5] of 14.6 µM.

In the case of `CC(Cc1ccc(Oc2cc(Oc3ccccc3)nc(N3CCN(Cc4ccccc4)CC3)n2)cc1)(Oc1ccccc1)C(=O)O` (stereo not shown) [Compound 44, 3-{4-[2-(4-Benzyl-piperazin-1-yl)-6-phenoxy-pyrimidin-4-yloxy]-phenyl}-2-methyl-2-phenoxy-propionic acid], the melting point is 135 to 137 °C. In series [1], this compound gave an EC50 of 4.68 µM. The same compound gave an IC50 in series [2] of 14.1 µM. Besides, the concentration for half-maximal inhibition (IC50) in series [3] was found to be 11.1 µM. Moreover, half-maximal inhibition in series [4] (IC50) was put at 35.2 µM. For the same compound, in series [5], the IC50 worked out at 15.4 µM.

`CC(Cc1ccc(Oc2cc(N3CCN(Cc4ccccc4)CC3)nc(NCc3ccccc3)n2)cc1)(Oc1ccccc1)C(=O)O` (stereo not shown) [Compound 47, 3-{4-[2-Benzylamino-6-(4-benzyl-piperazin-1-yl)-pyrimidin-4-yloxy]-phenyl}-2-methyl-2-phenoxy-propionic acid] gave a melting point of 104 to 106 °C. Moreover, the EC50 in series [1] was determined as 6.31 µM. In series [2], this compound showed an IC50 of 31.5 µM. Also, the IC50 in series [3] was > 50 µM. The IC50 in series [4] was > 50 µM. This compound registered an IC50 in series [5] of 22.8 µM.

As to `CC(Cc1ccc(Oc2cc(N3CCN(Cc4ccccc4)CC3)nc(Oc3ccccc3)n2)cc1)(Oc1ccccc1)C(=O)O` (stereo not shown) [Compound 43, 3-{4-[6-(4-Benzyl-piperazin-1-yl)-2-phenoxy-pyrimidin-4-yloxy]-phenyl}-2-methyl-2-phenoxy-propionic acid], the melting point lay in the range of 126 to 128 °C. In series [1], it took 1.62 µM to reach a half-maximal effect (EC50). Moreover, half-maximal inhibition in series [2] (IC50) required 32.5 µM. For the same compound, in series [3], the half-maximal inhibitory concentration (IC50) was > 50 µM. Further, the IC50 in series [4] is > 50 µM. This compound also came in with an IC50 in series [5] of 33.5 µM.

In turn, `CC(Cc1ccc(Oc2cc(N3CCN(c4ccccn4)CC3)nc(N)n2)cc1)(Oc1ccccc1)C(=O)O` (stereo not shown) [Compound 19, 3-{4-[2-Amino-6-(4-pyridin-2-yl-piperazin-1-yl)-pyrimidin-4-yloxy]-phenyl}-2-methyl-2-phenoxy-propionic acid] yielded a melting point of 110 to 111 °C. Also, the midpoint of the response in series [1], the EC50, lay at 6.31 µM. The same compound yielded an IC50 in series [2] of 42.5 µM. Moreover, the IC50 in series [4] was determined as 49.5 µM. Also, in series [5], the IC50 is > 50 µM.

As for `CC(Cc1ccc(Oc2cc(N3CCN(Cc4ccc(F)cc4)CC3)nc(N)n2)cc1)(Oc1ccccc1)C(=O)O` (stereo not shown) [Compound 7, 3-{4-{2-Amino-6-[4-(4-fluoro-benzyl)-piperazin-1-yl]-pyrimidin-4-yloxy}-phenyl}-2-methyl-2-phenoxy-propionic acid], the melting point was in the range of 107 to 109 °C. In series [2], the IC50 was > 50 µM. Further, the IC50 in series [3] was > 50 µM. For the same compound, the IC50 in series [4] is > 50 µM. Also, the IC50 in series [5] is > 50 µM.
